# Laboratory results as given in US20060029690A1, “Buckwheat compound and method of obtaining the same for treatment of hyperglycemia” (priority 2004, published 2006).
# Like-named read-outs stand apart in the source and are kept apart here.
# Tests used:
# alloxan diabetic mice [1] = assay: Blood glucose level of alloxan diabetic mice at day 7 and 14; assay type: in vivo; details: metformin 200 mg/kg
# Description: (§1) The animals were made diabetic by a single intravenous injection of 70 mg/kg alloxan into the tail vein. After a period of 4 days, the treated mice were fasted for 2 hours, then the blood sample was taken from the treated mice intravenously. The blood glucose concentration was determined using Glucose Oxidase Peroxidase method. The mice with the blood glucose concentration above 200 mg/dl were marked diabetic mice and were used for further experiments.
# (§2) The mice were divided into 5 groups, each group having 9 mice.
# (§3) Group 5 received reagent (3) at the dose of 5 g/kg (p.o.).
# (§4) At day 7 and 14, measurements of blood glucose concentration were taken after fasting for 2.5 and 5 hours. The change of glucose concentration by percentage was compared against the control group. Blood triglyceride and cholesterol concentrations were tested at day 14 (enzymatic method). Glucose tolerance test (2.0 g/kg, p.o.) was conducted at day 19. First, the mice were fasted for half an hour before the administration of control and test substances. Two and half hours later, the mice received glucose at the dose of 2 g/kg, po. Blood samples were taken at 0, 30, 60, 120 minutes after administration of the glucose. Blood glucose concentration (mg/dl) of the mice were determined and the related measurements of Area Under the Curve (AUC) were estimated. The serum superoxide dismutase (SOD) level of blood samples taken at 0 minute was tested. Glucose tolerance test was conducted again at day 22. The mice were fasted for 1 hour before administration. One and half hour after administration, the mice received glucose at the dose of 2 g/kg, po Blood samples were taken at 0, 30 60, 120 minutes.
# alloxan diabetic mice [2] = assay: Blood lipid level (cholesterol, triglyceride) of alloxan diabetic mice at day 14; assay type: in vivo; details: metformin 200 mg/kg, others 5000 mg/kg
# Description: as §1, §2, §3
# as §4, with “The serum superoxide dismutase (SOD) level of blood samples taken at 0 minute was tested. Glucose tolerance test was conducted again at day 22. The mice were fasted for 1 hour before administration. One and half hour after administration, the mice received glucose at the dose of 2 g/kg, po Blood samples were taken at 0, 30 60, 120 minutes.” left out
# alloxan diabetic mice [3] = assay: Serum SOD level of alloxan diabetic mice at day 19; assay type: in vivo; details: metformin 200 mg/kg, others 5000 mg/kg
# Description: as §1, §2, §3
# as §4, with “The serum superoxide dismutase (SOD) level of blood samples taken at 0 minute was tested. Glucose tolerance test was conducted again at day 22. The mice were fasted for 1 hour before administration. One and half hour after administration, the mice received glucose at the dose of 2 g/kg, po Blood samples were taken at 0, 30 60, 120 minutes.” left out
# alloxan diabetic mice [4] = assay: Glucose tolerance test and AUC in alloxan diabetic mice (day 19 and day 22); assay type: in vivo; details: for Blood glucose, glucose tolerance test, 0 min: metformin 200 mg/kg, others 5 g/kg
# Description: as §1, §2, §3, §4
# STZ diabetic rats [5] = assay: Fasting blood glucose concentration in STZ diabetic rats after 7 days (Example 1); assay type: in vivo, rat; details: oral administration for 7 days, metformin 0.2 g/kg, extracts 5.0 g/kg
# Description: (§5) The treatments were administered once every day.
# At day 7, the rats in groups 1, 2 and 3 were fasted and blood samples were taken at 2.5 hours and 5 hours after fasting began. Blood glucose concentrations (mg/dl) in these samples were then determined.
# STZ diabetic rats [6] = assay: Non-fasting blood glucose, serum SOD activity and catalase (CAT) activity in STZ diabetic rats at day 19; assay type: in vivo, rat; details: oral administration for 19 days
# Description: as §5
# At day 19, blood samples were taken, and blood glucose concentrations without fasting, the activities of SOD and catalase (CAT) levels were determined.
# STZ diabetic rats [7] = assay: Oral glucose tolerance test in STZ diabetic rats after 12 days (Example 2); assay type: in vivo, rat; details: 12 days oral, dosage 0.2 g/kg
# Description: […] were divided according to the blood glucose concentration under fasting conditions.
# The STZ diabetic rats were divided into 4 groups, each group having 10 rats.
# At day 12, oral glucose tolerance tests (2.0 g/kg) were conducted. […] 1 hour later, the rats received glucose at the dose of 2 g/kg (p.o.). Blood samples were taken at 0, 30 and 120 min respectively.
# STZ diabetic rats [8] = details: 7 days oral, dosage 0.2 g/kg
# Description: The mice were divided according to the blood glucose concentration under fasting conditions. The difference between the average blood glucose concentrations of the 4 groups of rats was less than 10 mg/dl.
# At day 7, fasting blood glucose concentration was tested after 2.5 and 5 hours of fasting. The change of glucose concentration by percentage was compared against the control group.
# [9] = Body weight of STZ diabetic rats after 9, 14 and 21 days; details: STZ diabetic rat; metformin 0.2 g/kg, flavonoids 4.0 g/kg, extracts 5.0 g/kg
# Description: (§6) Male rats (Sprague-Dwaley, male), weighing 120 to 140 g, were purchased from VTLF Experiment Animal Technology Center Company Ltd., Beijing P. R. China The animals were made diabetic by a single intraperitoneal injection of streptozocin (freshly prepared in 0.1 M citrate buffer (pH 4.5) at the dose of 58 mg/kg). After a period of 4 days, the treated rats were fasted for 2.5 hours, then blood samples were taken from the treated rats intravenously. Blood glucose concentrations were determined using the Glucose Oxidase Peroxidase method. The rats with blood glucose concentrations above 190 mg/dl were marked as diabetic rats and used for further experiments.
# (§7) The rats were divided into 6 groups of 10 rats per group. The difference in the average blood glucose concentrations among the 6 groups was less than 10 mg/dl. Group 1 served as the negative control and received water. […] The remaining four groups received reagents (1) to (4) as listed in Section 1.3.1 above. Reagents (1) and (2) were administered at a dose of 4 g/kg, while (3) and (4) were administered at a dose of 5 g/kg. The treatments were administered once every day.
# STZ diabetic rats [10] = assay: Glucose tolerance test and AUC in STZ diabetic rats (day 14 and day 21)
# Description: as §6, §7
# At day 14, glucose tolerance tests were conducted. The rats were fasted for 1 hour before receiving the reagents at dosages of 2.0 g/kg (p.o.). Blood samples were taken at 0, 30, 60, and 120 min after receiving the reagents. Blood glucose concentrations (mg/dl) were determined and the related AUC were calculated.
# At day 21, glucose tolerance tests were conducted. The rats were fasted for 1 hour, then received their respective reagents at the dose of 5 g/kg (p.o.). 2.5 hours after administration of reagent the rats received glucose at a dose of 2 g/kg (p.o.). Blood samples were taken at 0, 30, and 120 minutes after glucose administration. Blood glucose concentrations (mg/dl) were determined and the related AUC were calculated.
# [11] = day 19, glucose 2 g/kg p.o. 2.5 h after administration
# [12] = day 22, glucose 2 g/kg p.o. 1.5 h after administration
# [13] = oral administration for 14 days
# [14] = oral administration for 21 days
compound,measurement,setting,value
"CN(C)C(=N)N=C(N)N [Metformin, metformin]",effective in lowering blood glucose concentration in alloxan diabetic mice (in words),"alloxan diabetic mice [1]; continuously for 7 and 14 days, extracts 5 g/kg",significant glucose-lowering effect
same,"Blood glucose concentration at day 7, 2.5 hr after administering","alloxan diabetic mice [1]; day 7, 2.5 hr, p.o. once daily, extracts and flavonoid B 5000 mg/kg",216.8 ± 78.2 mg/dL
same,"Blood glucose concentration at day 7, 5 hr after administering","alloxan diabetic mice [1]; day 7, 5 hr, p.o. once daily, others 5000 mg/kg",182.8 ± 88.1 mg/dL
same,"Blood glucose concentration at day 14, 2.5 hr after administering","alloxan diabetic mice [1]; day 14, 2.5 hr, p.o. once daily, others 5000 mg/kg",281.5 ± 60.9 mg/dL
same,"Blood glucose concentration at day 14, 5 hr after administering","alloxan diabetic mice [1]; day 14, 5 hr, p.o. once daily, others 5000 mg/kg",221.7 ± 65.9 mg/dL
same,"blood glucose change by percentage, day 7, 2.5 hr","alloxan diabetic mice [1]; versus control group, day 7, 2.5 hr, others 5000 mg/kg",34%
same,"blood glucose change by percentage, day 7, 5 hr","alloxan diabetic mice [1]; versus control group, day 7, 5 hr, others 5000 mg/kg",32.4%
same,"blood glucose change by percentage, day 14, 2.5 hr","alloxan diabetic mice [1]; versus control group, day 14, 2.5 hr, others 5000 mg/kg",21.2%
same,"blood glucose change by percentage, day 14, 5 hr","alloxan diabetic mice [1]; versus control group, day 14, 5 hr, others 5000 mg/kg",21.3%
same,Blood cholesterol,alloxan diabetic mice [2],159.8 ± 48.7 mg/dL
same,Blood triglyceride,alloxan diabetic mice [2],132.8 ± 34.2 mg/dL
same,Serum SOD,alloxan diabetic mice [3],78.3 ± 26.5 u/mg
same,"Blood glucose, glucose tolerance test, 30 min",alloxan diabetic mice [4]; [11],544.4 ± 45.3 mg/dL
same,"Blood glucose, glucose tolerance test, 60 min",alloxan diabetic mice [4]; [11],512.0 ± 76.9 mg/dL
same,"Blood glucose, glucose tolerance test, 120 min",alloxan diabetic mice [4]; [11],408.4 ± 71.3 mg/dL
same,"Blood glucose, glucose tolerance test, 0 min",alloxan diabetic mice [4]; [11],346.8 ± 68.3 mg/dL
same,"Blood glucose, glucose tolerance test, 30 min",alloxan diabetic mice [4]; [12],474.5 ± 74.4 mg/dL
same,"Blood glucose, glucose tolerance test, 60 min",alloxan diabetic mice [4]; [12],450.7 ± 80.1 mg/dL
same,"Blood glucose, glucose tolerance test, 120 min",alloxan diabetic mice [4]; [12],358.6 ± 88.3 mg/dL
same,"Blood glucose, glucose tolerance test, 0 min",alloxan diabetic mice [4]; [12],377.6 ± 87.6 mg/dL
same,"Fasting blood glucose concentration, 5.0 hr.",STZ diabetic rats [5]; flavonoids 4.0 g/kg,185.6 ± 78.8 mg/dL
same,"fasting blood glucose concentration, 2.5 hr.",STZ diabetic rats [5]; flavonoids A and B 4.0 g/kg,261.1 ± 45.7 mg/dL
same,CAT activity,STZ diabetic rats [6],64.6 ± 12.5 U/gHb
same,Serum SOD activity,STZ diabetic rats [6],164.8 ± 16.9 NU/ml
same,Non-fasting blood glucose concentration,"STZ diabetic rats [6]; metformin 0.2 g/kg, flavonoids 4.0 g/kg, extracts 5.0 g/kg",340.5 ± 40.7 mg/dL
same,AUC,STZ diabetic rats [7],800.9 ± 103.2 mg·h/dL
same,"Fasting blood glucose concentration, oral glucose tolerance, 0 min",STZ diabetic rats [7],398.4 ± 36.6 mg/dL
same,"Fasting blood glucose concentration, oral glucose tolerance, 30 min",STZ diabetic rats [7],458.4 ± 59.7 mg/dL
same,"Fasting blood glucose concentration, oral glucose tolerance, 120 min",STZ diabetic rats [7],323.9 ± 51.2 mg/dL
same,reduction of AUC by percentage,STZ diabetic rats [7]; versus control,(14.2) %
same,"fasting blood glucose concentration, 2.5 hr.",STZ diabetic rats [8],357.2 ± 51.5 mg/dL
same,"fasting blood glucose concentration, 5 hr.",STZ diabetic rats [8],288.9 ± 68.8 mg/dL
same,"reduction of blood glucose concentration by percentage, 2.5 hr.",STZ diabetic rats [8]; versus control,(11.7) %
same,"reduction of blood glucose concentration by percentage, 5 hr.",STZ diabetic rats [8]; versus control,(22.5) %
same,weight at day 9,[9],203.3 ± 22.3 g
same,weight at day 14,[9],200.4 ± 29.4 g
same,AUC of blood glucose,STZ diabetic rats [10]; [13],652.5 ± 133.8 mg·h/dL
same,"blood glucose concentration, glucose tolerance test, 30 min",STZ diabetic rats [10]; [13],356.2 ± 93.3 mg/dL
same,"blood glucose concentration, glucose tolerance test, 60 min",STZ diabetic rats [10]; [13],320.9 ± 64.6 mg/dL
same,"blood glucose concentration, glucose tolerance test, 120 min",STZ diabetic rats [10]; [13],296.6 ± 72.6 mg/dL
same,"blood glucose concentration, glucose tolerance test, 0 min","STZ diabetic rats [10]; oral administration for 14 days, metformin 0.2 g/kg, flavonoids 4.0 g/kg, extracts 5.0 g/kg",341.8 ± 44.8 mg/dL
same,AUC of blood glucose,STZ diabetic rats [10]; [14],645.4 ± 122.0 mg·h/dL
same,"blood glucose concentration, oral glucose tolerance, 30 min",STZ diabetic rats [10]; [14],358.0 ± 77.3 mg/dL
same,"blood glucose concentration, oral glucose tolerance, 120 min",STZ diabetic rats [10]; [14],279.8 ± 51.6 mg/dL
